The results in this text go back to patent publication US20160129011A1, “BICYCLO 2,3-BENZODIAZEPINES AND SPIROCYCLICALLY SUBSTITUTED 2,3-BENZODIAZEPINES” (BAYER PHARMA AKTIENGESELLSCHAFT, priority 2013, published 2016).

The target of one assay is T1, BRD4 (BD1) (Homo sapiens, UniProt O60885).
T1 construct: longer constructs also being possible, preferably amino acids 44-168; made in house; host or cells: E. coli
In words: Binding assay BRD4/acetylated peptide H4 (TR-FRET protein-protein interaction assay). The note with it: BRD4 (BD1) / acetylated histone H4 peptide. From the text:
To assess the BRD4 binding strength of the substances described in this application, the ability thereof to inhibit the interaction between BRD4 (BD1) and acetylated histone H4 in a dose-dependent manner was quantified.
For this purpose, a time-resolved fluorescence resonance energy transfer (TR-FRET) assay was used, which measures the binding between N-terminally His6-tagged BRD4 (BD1) (amino acids 67-152, longer constructs also being possible, preferably amino acids 44-168) and a synthetic acetylated histone H4 (Ac—H4) peptide with sequence GRGK(Ac)GGK(Ac)GLGK(Ac)GGAK(Ac)RHGSGSK-biotin. The recombinant BRD4 protein produced in-house according to Filippakopoulos et al., Nature, 2010, 468:1119-1123 was expressed in E. coli and purified by means of (Ni-NTA) affinity and (Sephadex G-75) size exclusion chromatography. The Ac—H4 peptide can be purchased, for example, from Biosyntan (Berlin, Germany).
In the assay, typically 11 different concentrations of each substance (0.1 nM, 0.33 nM, 1.1 nM, 3.8 nM, 13 nM, 44 nM, 0.15 μM, 0.51 μM, 1.7 μM, 5.9 μM and 20 μM) were analysed as duplicates on the same microtitre plate. For this purpose, 100-fold concentrated solutions in DMSO were prepared by serial dilutions (1:3.4) of a 2 mM stock solution into a clear, 384-well microtitre plate (Greiner Bio-One, Frickenhausen, Germany). From this, 50 nl were transferred into a black test plate (Greiner Bio-One, Frickenhausen, Germany). The test was started by the addition of 2 μl of a 2.5-fold concentrated BRD4 solution (final concentration typically 10 nM in the 5 μl of reaction volume) in aqueous assay buffer [50 mM HEPES pH 7.5, 50 mM sodium chloride (NaCl), 0.25 mM CHAPS and 0.05% serum albumin (BSA)] to the substances in the test plate. This was followed by a 10-minute incubation step at 22° C. for the pre-equilibration of putative complexes between BRD4 and the substances.
The mixture was then incubated in the dark at 22° C. for one hour and then at 4° C. for at least 3 hours and for no longer than overnight. The formation of BRD4/Ac—H4 complexes was determined by the measurement of the resonance energy transfer from the streptavidin-Eu cryptate to the anti-6His-XL665 antibody present in the reaction. For this purpose, the fluorescence emission was measured at 620 nm and 665 nm after excitation at 330-350 nm in a TR-FRET measuring instrument, for example a Rubystar or Pherastar (both from BMG Lab Technologies, Offenburg, Germany) or a Viewlux (Perkin-Elmer). The ratio of the emissions at 665 nm and at […] was taken as an indicator of the amount of BRD4/Ac—H4 complexes formed.
The data (ratios) obtained were normalized, with 0% inhibition corresponding to the mean from the measurements for a set of controls (typically 32 data points) in which all the reagents were present. In these, in place of test substances, 50 nl of DMSO (100%) were used. Inhibition of 100% corresponded to the mean from the measurements for a set of controls (typically 32 data points) in which all the reagents except BRD4 were present. The IC50 was determined by regression analysis based on a 4-parameter equation (minimum, maximum, IC50, Hill; Y=max+(min−max)/(1+(X/IC50)^Hill)).

A further assay has as its system MOLM-13 cells. Description: Cell proliferation assay (alamarBlue), MOLM-13. Type of assay: cell-based. The note with it: Homo sapiens, MOLM-13; acute myeloid leukaemia cell line, 96 h incubation. The protocol: In accordance with the invention, the ability of the substances to inhibit cell proliferation was determined. Cell viability was determined by means of the alamarBlue® reagent (Invitrogen) in a Victor X3 Multilabel Reader (Perkin Elmer). The excitation wavelength was 530 nm and the emission wavelength […].
The MOLM-13 cells (DSMZ, ACC 554) were sown at a concentration of 4000 cells/well in 100 μl of growth medium (RPMI1640, 10% FCS) on 96-well microtitre plates.
The MDA-MB-231 cells (DSMZ, ACC 732) were sown at a concentration of 4000 cells/well in 100 μl of growth medium (DMEM/Ham's F12 medium, 10% FCS) on 96-well microtitre plates. After overnight incubation at 37° C., the fluorescence values (CI values) were determined. Then the plates were treated with various substance dilutions (1E-5 M, 3E-6 M, 1E-6 M, 3E-7 M, 1E-7 M, 3E-8 M, 1E-8 M) and incubated at 37° C. for 72 (MV4-11, LOX-IMVI cells), 96 (MOLM-13, B16F10, […] cells), 120 (MOLP-8, KMS-12-PE cells) or 168 (LAPC-4 cells) hours. Subsequently, the fluorescence values were determined (CO values). For the data analysis, the CI values were subtracted from the CO values and the results were compared between cells which had been treated with various dilutions of the substance or only with buffer solution. This was used to calculate the IC50 values (substance concentration required for 50% inhibition of cell proliferation).
The substances were examined in the cell lines of Table 1 which, in an exemplary manner, represent the stated indications: […]

SMILES strings stand for the structures.

Consider `CNC(=O)N1N=C(c2ccc(N3[C@@H]4CC[C@H]3CC(=O)C4)cc2)c2cc(OC)c(OC)cc2C[C@H]1C` [Example 6.1, (4R)-7,8-dimethoxy-N,4 dimethyl-1-[4-(3-oxo-8-azabicyclo[3.2.1]oct-8-yl)phenyl]-4,5-dihydro-3H-2,3-benzodiazepine-3-carboxamide], for which the values for the IC50 at BRD4 (BD1) and with MOLM-13 cells were 1230 nM and 450 nM, respectively.

Take `CNC(=O)N1N=C(c2ccc(N3C[C@H]4CC[C@@H](C3)O4)cc2)c2cc(OC)c(OC)cc2CC1C` (mixture of isomers) [Example 4, (±)-7,8-dimethoxy-N,4-dimethyl-1-[4-(8-oxa-3-azabicyclo[3.2.1]oct-3-yl)phenyl]-4,5-dihydro-3H-2,3-benzodiazepine-3-carboxamide]: the half-maximal inhibitory concentration (IC50) at BRD4 (BD1) came out at 30 nM; with MOLM-13 cells, 100 nM.

In the case of `CNC(=O)N1N=C(c2ccc(-c3ccc4c(c3)CCO4)cc2)c2cc(OC)c(OC)cc2CC1C` (racemic) [Example 22, (±)-1-[4-(2,3-dihydro-1-benzofuran-5-yl)phenyl]-7,8-dimethoxy-N,4-dimethyl-4,5-dihydro-3H-2,3-benzodiazepine-3-carboxamide], the IC50 on BRD4 (BD1) came to 50 nM; with MOLM-13 cells, 550 nM.

As for `CNC(=O)N1N=C(c2ccc(-c3cccc4ncccc34)cc2)c2cc(OC)c(OC)cc2CC1C` (racemic) [Example 23, (±)-1-[4-(quinolin-5-yl)phenyl]-7,8-dimethoxy-N,4-dimethyl-4,5-dihydro-3H-2,3-benzodiazepine-3-carboxamide], the IC50 was 60 nM on BRD4 (BD1) and 250 nM in the assay with MOLM-13 cells.

`CNC(=O)N1N=C(c2ccc(N3C[C@H]4CC[C@@H](C3)O4)cc2)c2cc(OC)c(OC)cc2C[C@H]1C` [Example 4.1, (4R)-7,8-dimethoxy-N,4-dimethyl-1-[4-(8-oxa-3-azabicyclo[3.2.1]oct-3-yl)phenyl]-4,5-dihydro-3H-2,3-benzodiazepine-3-carboxamide]: the half-maximal inhibitory concentration (IC50) on BRD4 (BD1) was determined as 1850 nM; in the assay on MOLM-13 cells, 6090 nM.

`CNC(=O)N1N=C(c2cccc(N3CC4CCC(C3)O4)c2)c2cc(OC)c(OC)cc2CC1C` (racemic) [Example 13, (±)-7,8-dimethoxy-N,4-dimethyl-1-[3-(8-oxa-3-azabicyclo[3.2.1]oct-3-yl)phenyl]-4,5-dihydro-3H-2,3-benzodiazepine-3-carboxamide]: the IC50 was determined as 90 nM on BRD4 (BD1) and 560 nM with MOLM-13 cells.

Consider `CNC(=O)N1N=C(c2ccc(N3CC4(COC4)C3)cc2)c2cc(OC)c(OC)cc2CC1C` (racemic) [Example 5, (±)-7,8-dimethoxy-N,4-dimethyl-1-[4-(2-oxa-6-azaspiro[3.3]hept-6-yl)phenyl]-4,5-dihydro-3H-2,3-benzodiazepine-3-carboxamide], for which the IC50 on BRD4 (BD1) came to 20 nM; in the assay on MOLM-13 cells it was 210 nM.

With `CNC(=O)N1N=C(c2ccc(-c3ccnc4ccccc34)cc2)c2cc(OC)c(OC)cc2CC1C` (racemic) [Example 24, (±)-1-[4-(quinolin-4-yl)phenyl]-7,8-dimethoxy-N,4-dimethyl-4,5-dihydro-3H-2,3-benzodiazepine-3-carboxamide], the half-maximal inhibitory concentration (IC50) was determined as 70 nM at BRD4 (BD1) and 390 nM in the assay with MOLM-13 cells.

Take `CNC(=O)N1N=C(c2ccc(N3CC4(COC4)C3)cc2)c2cc(OC)c(OC)cc2C[C@@H]1C` [Example 5.1, (4S)-7,8-dimethoxy-N,4-dimethyl-1-[4-(2-oxa-6-azaspiro[3.3]hept-6-yl)phenyl]-4,5-dihydro-3H-2,3-benzodiazepine-3-carboxamide]: the 50% inhibitory concentration (IC50) on BRD4 (BD1) was 20 nM; in the assay with MOLM-13 cells, 110 nM.

`CNC(=O)N1N=C(c2ccc(N3[C@@H]4CC[C@H]3CC(=O)C4)cc2)c2cc(OC)c(OC)cc2C[C@@H]1C` [Example 6.2, (4S)-7,8-dimethoxy-N,4-dimethyl-1-[4-(3-oxo-8-azabicyclo[3.2.1]oct-8-yl)phenyl]-4,5-dihydro-3H-2,3-benzodiazepine-3-carboxamide]: the figures for the concentration for half-maximal inhibition (IC50) on BRD4 (BD1) and with MOLM-13 cells were 20 nM and 50 nM, respectively.

For the molecule `CNC(=O)N1N=C(c2ccc(N3C(=O)C4CCC3C4)cc2)c2cc(OC)c(OC)cc2CC1C` (stereo not drawn) [Example 1, [1S-(1R*,4S*)]-7,8-Dimethoxy-N,4-dimethyl-1-[4-(3-oxo-2-azabicyclo[2.2.1]hept-2-yl)phenyl]-4,5-dihydro-3H-2,3-benzodiazepine-3-carboxamide], the concentration for half-maximal inhibition (IC50) on BRD4 (BD1) amounted to 30 nM; in the assay with MOLM-13 cells, 140 nM.

For `CNC(=O)N1N=C(c2ccc(N3[C@@H]4CC[C@H]3CC(=O)C4)cc2)c2cc(OC)c(OC)cc2CC1C` (mixture of isomers) [Example 6, (±)-7,8-dimethoxy-N,4-dimethyl-1-[4-(3-oxo-8-azabicyclo[3.2.1]oct-8-yl)phenyl]-4,5-dihydro-3H-2,3-benzodiazepine-3-carboxamide], the results for the concentration for half-maximal inhibition (IC50) on BRD4 (BD1) and with MOLM-13 cells were 30 nM and 180 nM, respectively.

Take `CNC(=O)N1N=C(c2ccc(-c3ccc4c(c3)OCCO4)cc2)c2cc(OC)c(OC)cc2CC1C` (racemic) [Example 21, (±)-1-[4-(2,3-dihydro-1,4-benzodioxin-6-yl)phenyl]-7,8-dimethoxy-N,4-dimethyl-4,5-dihydro-3H-2,3-benzodiazepine-3-carboxamide]: the IC50 on BRD4 (BD1) came out at 90 nM; with MOLM-13 cells, 710 nM.

On to `CNC(=O)N1N=C(c2ccc(-c3cncc4ccccc34)cc2)c2cc(OC)c(OC)cc2CC1C` (racemic) [Example 26, (±)-1-[4-(isoquinolin-4-yl)phenyl]-7,8-dimethoxy-N,4-dimethyl-4,5-dihydro-3H-2,3-benzodiazepine-3-carboxamide], for which the IC50 was determined as 60 nM at BRD4 (BD1) and 550 nM with MOLM-13 cells.

Consider `CNC(=O)N1N=C(c2ccc(N3CC4(CCS4(=O)=O)C3)cc2)c2cc(OC)c(OC)cc2CC1C` (racemic) [Example 3, 1-[4-(1,1-dioxido-1-thia-6-azaspiro[3.3]hept-6-yl)phenyl]-7,8-dimethoxy-N,4-dimethyl-4,5-dihydro-3H-2,3-benzodiazepine-3-carboxamide], for which the IC50 is 20 nM on BRD4 (BD1) and 150 nM in the assay on MOLM-13 cells.

As to `CNC(=O)N1N=C(c2ccc(-c3ccc4c(ccn4C)c3)cc2)c2cc(OC)c(OC)cc2CC1C` (racemic) [Example 25, (±)-7,8-dimethoxy-N,4-dimethyl-1-[4-(1-methyl-1H-indol-5-yl)phenyl]-4,5-dihydro-3H-2,3-benzodiazepine-3-carboxamide], the concentration for half-maximal inhibition (IC50) on BRD4 (BD1) stood at 50 nM; with MOLM-13 cells it was 530 nM.
